Reference: paper PMC2831140 (Biochemistry, 2010)

Biological target: T1, TbQSOX (Trypanosoma brucei, UniProt Q585M6)
T1 sequence (Q585M6 20-485): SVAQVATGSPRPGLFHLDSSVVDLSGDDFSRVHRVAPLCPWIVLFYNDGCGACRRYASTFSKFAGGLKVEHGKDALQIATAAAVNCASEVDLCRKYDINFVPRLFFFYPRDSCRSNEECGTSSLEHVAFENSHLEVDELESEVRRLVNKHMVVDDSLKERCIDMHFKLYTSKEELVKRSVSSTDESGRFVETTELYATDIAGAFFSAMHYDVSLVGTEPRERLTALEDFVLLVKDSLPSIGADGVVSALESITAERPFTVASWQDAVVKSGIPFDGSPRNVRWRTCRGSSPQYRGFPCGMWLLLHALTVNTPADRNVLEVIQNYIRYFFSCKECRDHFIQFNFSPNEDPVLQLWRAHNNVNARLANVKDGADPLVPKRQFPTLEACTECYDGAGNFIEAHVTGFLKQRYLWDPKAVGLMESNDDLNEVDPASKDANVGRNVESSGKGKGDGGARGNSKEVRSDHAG
Assay: UV/Vis spectrum of bound flavin in purified protein
Format: binding
Conditions: 50 mM phosphate pH 7.5, 1 mM EDTA; prosthetic group in Erv/ALR domain

Structure (SMILES): Cc1cc2nc3c(=O)[nH]c(=O)nc-3n(C[C@H](O)[C@H](O)[C@H](O)COP(=O)(O)OP(=O)(O)OC[C@H]3O[C@@H](n4cnc5c(N)ncnc54)[C@H](O)[C@@H]3O)c2cc1C [FAD]
- UV/Vis spectrum of bound flavin in purified protein: found to be a stable, monomeric, FAD-containing protein
